From paper PMC10108345, “Differentiating Inhibition Selectivity and Binding Affinity of Isocitrate Dehydrogenase 1 Variant Inhibitors” (Journal of Medicinal Chemistry, 2023)

Key:
IDH1 R132H [1] = biological target: T1, IDH1 R132H (Homo sapiens, UniProt O75874, R132H); assay: 1H NMR (700 MHz) reaction monitoring, IDH1 R132H-catalysed conversion of 2OG to 2HG; format: biochemical; settings: 1 μM IDH1 R132H, 20 μM compound, over […]; in words
T1 construct: made in house; host or cells: Escherichia coli BL21(DE3) pLyS
Description: Nuclear magnetic resonance (NMR) reaction monitoring was performed at 298 K using a Bruker AVIII 700 MHz NMR spectrometer with a 5 mm inverse triple-carbon-inverse (TCI) cryoprobe in 5 mm tubes (Norell). Data were recorded with a relaxation delay of 2 s and 32 scans, employing a pulse sequence with water suppression (^1H excitation sculpting suppression with perfect-echo using a 2 ms Sinc selective inversion pulse). There is a time delay of 184 s between each acquired spectrum over the time-course experiment. Conversion of 2OG to 2HG catalyzed by IDH1 R132H was monitored using 500 μL of 1 μM IDH, 20 μM compound [0.4% (v/v) DMSO, 10 min pre-incubation with IDH], 10 mM MgCl2, 1.5 mM NADPH, and 1.5 mM 2OG, in 50 mM tris-D11-HCl, pH 7.5 in 90% H2O/10% D2O (v/v). Data were processed with TopSpin 3.6.1 software. Signals corresponding to NADPH, NADP^+, 2OG, and 2HG at each time point over a total of 2 to 3 h were integrated, converted to concentrations, and plotted against time. The difference in concentrations in the linear range of the reaction profile was converted to % residual activity with the DMSO control defined as the 100% residual activity reference.

wt IDH1 = biological target: T2, wt IDH1 (Homo sapiens, UniProt O75874); assay: Differential scanning fluorimetry (DSF) thermal shift, wt IDH1; format: binding; settings: largest change in Tm of IDH1 ([…]) with 3-100 μM inhibitor
T2 construct: made in house; host or cells: Escherichia coli BL21(DE3) pLyS
Description: Thermal shift experiments were carried out using Sypro Orange and a CFX96 Touch Real-Time PCR Detection System (Bio-Rad) machine.[42] […] The standard assay buffer contains 50 mM tris–HCl at pH 7.5. Various concentrations of compounds (1% DMSO final) were mixed with IDH1 for thermal stabilization studies. […] Bio-Rad CFX Manager was used to determine the melting temperature, Tm.

IDH1 R132H [2] = biological target: T1, IDH1 R132H; assay: Ligand-observed 1H NMR (CPMG-edited, 700 MHz) binding, IDH1 R132H; settings: line broadening, 10 μM inhibitor, 50 mM tris-D11-HCl pH 7.5
Description: Additional solvent presaturation was applied for 2 s. Samples contained 160 μL of 10 μM compound (0.2% DMSO) in 50 mM tris-D11-HCl, pH 7.5 in 90% H2O/10% D2O (v/v). […] 200 or 400 scans per IDH concentration were recorded, and signals corresponding to the compound were integrated and processed using TopSpin 3.6.1 software.

T1 sequence (O75874 whole entry R132H): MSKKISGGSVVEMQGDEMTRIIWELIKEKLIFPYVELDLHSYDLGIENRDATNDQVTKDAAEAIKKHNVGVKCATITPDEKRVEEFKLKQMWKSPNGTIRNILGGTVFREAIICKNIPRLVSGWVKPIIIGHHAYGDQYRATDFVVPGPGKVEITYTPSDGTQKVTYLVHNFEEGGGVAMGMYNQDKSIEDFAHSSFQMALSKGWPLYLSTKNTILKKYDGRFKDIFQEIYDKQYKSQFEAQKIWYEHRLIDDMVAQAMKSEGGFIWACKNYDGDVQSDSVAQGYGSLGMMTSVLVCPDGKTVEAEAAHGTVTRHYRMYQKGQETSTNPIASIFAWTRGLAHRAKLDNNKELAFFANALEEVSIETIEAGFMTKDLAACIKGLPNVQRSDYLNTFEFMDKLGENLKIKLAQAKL
T2 sequence (O75874 whole entry): as the sequence (O75874 whole entry R132H) above, with H132R counted along it

With `Cc1ccccc1C(C(=O)NC1CCCCC1)N(C(=O)Cn1ccnc1C)c1cccc(F)c1` (stereo not drawn) [AGI-5198] the “inhibition of IDH1 R132H catalysed conversion of 2OG to 2HG monitored by 1H NMR” value (IDH1 R132H [1]) was “weaker inhibition”, the “Δ Tm/°C by DSF wt IDH1” value (wt IDH1) was 6.9 °C and the Kd (IDH1 R132H [2]) was 8.6 µM.
